Experiment [1] concerns the target T1, CF Im25 (25 kDa subunit of human cleavage factor Im; CPSF5; NUDT21) (Homo sapiens, UniProt O43809). Put plainly: steady-state tryptophan fluorescence titration. It is filed as binding.
In experiment [2] the target is T1, CF Im25 (25 kDa subunit of human cleavage factor Im; CPSF5; NUDT21). Briefly: […] Å crystal structure. It is filed as binding.

T1 sequence (O43809 whole entry): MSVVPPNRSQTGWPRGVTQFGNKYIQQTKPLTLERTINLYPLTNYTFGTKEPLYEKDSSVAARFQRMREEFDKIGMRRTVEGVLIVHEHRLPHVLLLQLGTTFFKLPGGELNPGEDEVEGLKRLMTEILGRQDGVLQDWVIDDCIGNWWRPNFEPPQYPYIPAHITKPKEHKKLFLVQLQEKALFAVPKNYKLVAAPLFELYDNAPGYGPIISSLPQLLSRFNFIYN

The Kd is a measure of binding affinity in units of concentration. Low values mean tighter binding, high ones weaker binding. In experiment [1], `Nc1ncnc2c1ncn2[C@@H]1O[C@H](COP(=O)(O)OP(=O)(O)OP(=O)(O)O)[C@@H](O)[C@H]1O` [ATP] registered a Kd of 1530 ± 180 µM. For `Nc1ncnc2c1ncn2[C@@H]1O[C@H](COP(=O)(O)OP(=O)(O)OP(=O)(O)OP(=O)(O)OC[C@H]2O[C@@H](n3cnc4c(N)ncnc43)[C@H](O)[C@@H]2O)[C@@H](O)[C@H]1O` [Ap4A], the Kd in experiment [2] is 2.44 ± 0.49 µM.

The record behind these values is PMC2425470 (Nucleic Acids Research, 2008).
